PubChem BioAssay (NCI)
Where “and” joins values, the source holds several entries; their conditions need not be identical. Equal entries are not always repeated.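 48-hour exposure; five concentrations; linearly interpolated endpoints. GI50: concentration for 50% inhibition of growth. TGI is the concentration that stops growth completely.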

What was measured:
Experiment in all cases: NCI anticancer screen, dose series, 48 h
UACC-257 melanoma = test system: UACC-257 melanoma
U251 CNS = test system: U251 CNS
CAKI-1 renal = test system: CAKI-1 renal
OVCAR-5 ovarian = test system: OVCAR-5 ovarian
HCT-15 colon = test system: HCT-15 colon
SNB-19 CNS = test system: SNB-19 CNS
K-562 leukemia = test system: K-562 leukemia
SK-MEL-5 melanoma = test system: SK-MEL-5 melanoma
UO-31 renal = test system: UO-31 renal
SK-OV-3 ovarian = test system: SK-OV-3 ovarian

| SMILES | GI50 (UACC-257 melanoma) | TGI (UACC-257 melanoma) | GI50 (U251 CNS) | TGI (U251 CNS) | GI50 (CAKI-1 renal) | TGI (CAKI-1 renal) | GI50 (OVCAR-5 ovarian) | TGI (OVCAR-5 ovarian) | GI50 (HCT-15 colon) | TGI (HCT-15 colon) | GI50 (SNB-19 CNS) | TGI (SNB-19 CNS) | GI50 (K-562 leukemia) | TGI (K-562 leukemia) | GI50 (SK-MEL-5 melanoma) | TGI (SK-MEL-5 melanoma) | GI50 (UO-31 renal) | TGI (UO-31 renal) | GI50 (SK-OV-3 ovarian) | TGI (SK-OV-3 ovarian) |
| --- | --- | --- | --- | --- | --- | --- | --- | --- | --- | --- | --- | --- | --- | --- | --- | --- | --- | --- | --- | --- |
| CCc1nc2cc(/C=C/C(=O)NO)c(F)cc2c(=O)n1CCc1ccccc1 | 2.12 µM | 7.41 µM | 0.872 µM | 3.18 µM | 0.822 µM | 6.2 µM | 1.61 µM | 12.6 µM | 0.461 µM | 16.5 µM | 1.32 µM | 12.4 µM | 1.65 µM | > 100 µM | 0.512 µM | 2.52 µM | 0.735 µM | 2.73 µM | 1.68 µM | 5.28 µM |
| CC(C)(C)c1cc2c(OP(c3ccccc3)c3ccccc3)c(c1)Cc1cc(C(C)(C)C)cc(c1OP(c1ccccc1)c1ccccc1)Cc1cc(C(C)(C)C)cc(c1OP(c1ccccc1)c1ccccc1)Cc1cc(C(C)(C)C)cc(c1OP(c1ccccc1)c1ccccc1)C2 | > 50 µM | > 50 µM | > 50 µM | > 50 µM |  | > 5 µM | > 50 µM | > 50 µM | > 50 µM | > 50 µM | > 50 µM | > 50 µM | > 50 µM | > 50 µM | > 50 µM | > 50 µM | > 50 µM | > 50 µM | > 50 µM | > 50 µM |
| COC(=O)c1c(C(=O)OC)c(C(=O)OC)c(C(=O)OC)c1C(=O)OC |  | > 100 µM |  | > 100 µM |  | > 100 µM |  | > 100 µM |  | > 100 µM |  | > 100 µM |  | > 100 µM |  | > 100 µM |  | > 100 µM |  | > 100 µM |
| Cc1occc1C(=S)Nc1ccc(Cl)c(C(=O)OCC2CC2)c1 |  | > 100 µM |  | > 100 µM |  | > 100 µM |  | > 100 µM |  | > 100 µM |  | > 100 µM |  | > 100 µM |  | > 100 µM |  | > 100 µM |  | > 100 µM |
| Cc1ccc(S(=O)(=O)NC(C)C(=O)O)cc1 (stereo not given) |  | > 100 µM |  | > 100 µM |  | > 100 µM |  | > 100 µM |  | > 100 µM |  | > 100 µM | > 100 µM | > 100 µM |  | > 100 µM |  | > 100 µM |  | > 100 µM |
| CC(C)C(OC(=O)c1cc(NC(=S)c2ccccc2)ccc1Cl)C(C)C |  | 58.5 µM |  | > 61.5 µM |  | 51.9 µM |  | > 100 µM |  | 74.4 µM |  | > 100 µM |  | > 100 µM |  | 29.9 µM |  | 54.6 µM |  | 99.4 µM |
| COc1cc2c3c(n(CCCn4cccn4)c(=O)c2cc1OC)-c1cc2c(cc1C3=O)OCO2 | 9.92 µM | > 100 µM | 0.724 µM | > 40.4 µM | 0.577 µM |  | 14 µM | 64.4 µM | 14.7 µM | > 100 µM | 1.08 µM | > 100 µM | 3.51 µM | > 100 µM | 1.48 µM | 5.24 µM | 0.962 µM | 18.1 µM | 4.13 µM | > 100 µM |
| Cc1ccc2nc(NC(=O)CSC(=S)N3CCN(Cc4ccccc4)CC3)sc2c1 | > 100 µM | > 100 µM | > 100 µM | > 100 µM | > 85.8 µM | > 100 µM | > 100 µM | > 100 µM | > 100 µM | > 100 µM | > 100 µM | > 100 µM | > 100 µM | > 100 µM | 56 µM | > 100 µM | > 79.5 µM | > 100 µM | > 100 µM | > 100 µM |
| NCC(=O)OCN1C(=O)C2C3C=CC(C2C1=O)C1C2C(=O)N(COC(=O)CN)C(=O)C2C31 (stereo not given) |  | > 100 µM and 77.6 µM |  | 45 µM and 38.7 µM |  | > 100 µM | 42.1 µM and 90 µM | > 100 µM |  | 36.9 µM and 34.8 µM |  | > 100 µM |  | 60.9 µM and > 100 µM |  | 51.7 µM and 34 µM |  | 97.7 µM and > 100 µM |  | > 100 µM |
| CCCN(CCC)c1ccc(C=O)c(OC)c1 | 18.5 µM | 61.2 µM | 28.1 µM | > 100 µM | 22.7 µM | 80.4 µM | 19.5 µM | > 100 µM | 24.1 µM | > 100 µM | 29.4 µM | > 100 µM | 19.2 µM | > 100 µM | 14.5 µM | 29.3 µM | 16.5 µM | > 100 µM | 25.8 µM | > 100 µM |
| CCCCCCCCOC(=O)c1cc(O)c(O)c(O)c1 | 6.4 µM | 45.4 µM | 3.02 µM | 28.6 µM | 0.644 µM | 3.52 µM | 12.5 µM | 52.9 µM | 1.57 µM | 18.3 µM | 5.27 µM | > 58.9 µM | 2.05 µM | > 38.8 µM | 3.26 µM | 11.6 µM | 0.279 µM | 2.9 µM | 7.28 µM | 28 µM |
| O=c1c2cc(-c3ccccc3)sc2nc2sc(-c3ccccc3)nn12 |  | > 100 µM |  | > 100 µM |  | > 100 µM |  | > 100 µM |  | > 100 µM |  | > 100 µM |  | > 100 µM |  | > 100 µM |  | > 100 µM |  | > 100 µM |
| CC[O+]=c1cccc2ssnc1-2 |  | > 100 µM |  | > 100 µM |  | > 100 µM |  | > 100 µM |  | > 100 µM |  | > 100 µM |  | > 100 µM |  | > 100 µM |  | > 100 µM |  | > 100 µM |
